Data published in patent US10344060B2 (priority 2013, dated 2019).
Where two headings read alike, the source gives them in different places.

Assays:
[1] = target: mouse Nav1.4 (Mus musculus, UniProt Q9ER60); assay: cell-based; settings: for IC50: PatchXpress, tonic block, mouse Nav1.4, read-out: PX mNav1.4 Tonic IC50; for mNav1.4/mNav1.7: ratio of PX tonic IC50, mouse Nav1.4 over mouse Nav1.7
[2] = target: rNav1.7 (Rattus norvegicus, UniProt O08562); assay: cell-based; settings: for IC50: PatchXpress, tonic block, rat Nav1.7, read-out: PX rNav1.7 Tonic IC50; for rNav1.7/hNav1.7: ratio of PX tonic IC50, rat Nav1.7 over human Nav1.7
Sequence of rNav1.7 (O08562 whole entry): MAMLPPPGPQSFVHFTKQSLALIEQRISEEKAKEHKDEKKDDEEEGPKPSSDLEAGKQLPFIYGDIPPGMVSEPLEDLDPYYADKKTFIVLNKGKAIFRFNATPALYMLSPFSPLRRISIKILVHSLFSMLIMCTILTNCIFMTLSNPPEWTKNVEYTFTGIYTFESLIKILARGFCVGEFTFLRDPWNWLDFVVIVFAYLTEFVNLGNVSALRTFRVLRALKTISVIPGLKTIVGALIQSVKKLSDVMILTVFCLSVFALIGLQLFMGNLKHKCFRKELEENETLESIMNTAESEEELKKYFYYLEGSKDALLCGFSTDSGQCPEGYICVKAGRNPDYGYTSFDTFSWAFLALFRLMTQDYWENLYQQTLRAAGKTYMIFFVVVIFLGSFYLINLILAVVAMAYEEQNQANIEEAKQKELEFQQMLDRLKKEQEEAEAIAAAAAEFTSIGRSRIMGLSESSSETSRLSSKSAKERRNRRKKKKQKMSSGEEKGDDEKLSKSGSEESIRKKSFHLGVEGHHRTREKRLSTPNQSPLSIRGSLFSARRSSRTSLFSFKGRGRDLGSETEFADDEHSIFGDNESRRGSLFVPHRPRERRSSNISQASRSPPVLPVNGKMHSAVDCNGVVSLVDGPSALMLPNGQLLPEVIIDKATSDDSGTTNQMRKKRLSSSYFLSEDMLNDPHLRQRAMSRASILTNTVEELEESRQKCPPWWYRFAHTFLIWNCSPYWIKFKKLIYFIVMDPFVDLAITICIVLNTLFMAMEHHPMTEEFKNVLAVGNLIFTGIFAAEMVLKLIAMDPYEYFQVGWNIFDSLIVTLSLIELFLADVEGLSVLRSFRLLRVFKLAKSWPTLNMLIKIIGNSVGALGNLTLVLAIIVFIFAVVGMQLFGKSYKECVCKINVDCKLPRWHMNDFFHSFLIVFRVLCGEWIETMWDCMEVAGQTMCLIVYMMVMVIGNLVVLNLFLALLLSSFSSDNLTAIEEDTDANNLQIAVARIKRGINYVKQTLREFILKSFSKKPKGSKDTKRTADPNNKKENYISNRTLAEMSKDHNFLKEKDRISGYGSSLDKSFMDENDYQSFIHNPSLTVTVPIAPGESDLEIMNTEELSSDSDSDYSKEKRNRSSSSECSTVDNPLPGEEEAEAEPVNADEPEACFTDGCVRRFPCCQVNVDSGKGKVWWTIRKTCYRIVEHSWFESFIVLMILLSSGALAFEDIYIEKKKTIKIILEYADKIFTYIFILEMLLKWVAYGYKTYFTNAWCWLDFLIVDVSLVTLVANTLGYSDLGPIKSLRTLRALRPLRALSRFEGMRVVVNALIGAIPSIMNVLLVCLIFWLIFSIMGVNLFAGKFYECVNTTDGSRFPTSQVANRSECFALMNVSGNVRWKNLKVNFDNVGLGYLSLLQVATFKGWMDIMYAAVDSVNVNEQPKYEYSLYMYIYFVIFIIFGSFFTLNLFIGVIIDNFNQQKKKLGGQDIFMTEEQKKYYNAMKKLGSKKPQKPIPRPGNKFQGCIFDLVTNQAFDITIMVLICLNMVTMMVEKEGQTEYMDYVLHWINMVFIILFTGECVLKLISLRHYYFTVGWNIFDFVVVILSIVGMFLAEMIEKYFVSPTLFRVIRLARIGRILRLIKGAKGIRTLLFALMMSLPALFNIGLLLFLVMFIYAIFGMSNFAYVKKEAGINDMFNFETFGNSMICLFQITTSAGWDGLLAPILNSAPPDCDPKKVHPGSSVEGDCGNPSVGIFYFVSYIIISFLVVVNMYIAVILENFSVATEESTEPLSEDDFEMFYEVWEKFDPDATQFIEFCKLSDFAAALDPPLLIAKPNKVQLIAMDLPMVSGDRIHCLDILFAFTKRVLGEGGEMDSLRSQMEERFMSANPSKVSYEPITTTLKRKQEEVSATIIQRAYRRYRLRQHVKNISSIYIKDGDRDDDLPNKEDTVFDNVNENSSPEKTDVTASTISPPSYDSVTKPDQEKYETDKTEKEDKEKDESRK

[3] = target: mNav1.7 (Mus musculus, UniProt Q62205); assay: cell-based; settings: for IC50: PatchXpress, tonic block, mouse Nav1.7, read-out: PX mNav1.7 Tonic IC50; for mNav1.7/hNav1.7: ratio of PX tonic IC50, mouse Nav1.7 over human Nav1.7
[4] = target: hNav1.7 (Homo sapiens, UniProt Q15858); assay: cell-based; assay type: cell-based; settings: PatchXpress, tonic block, read-out: PX hNav1.7 Tonic IC50
Sequence of hNav1.7 (Q15858 whole entry): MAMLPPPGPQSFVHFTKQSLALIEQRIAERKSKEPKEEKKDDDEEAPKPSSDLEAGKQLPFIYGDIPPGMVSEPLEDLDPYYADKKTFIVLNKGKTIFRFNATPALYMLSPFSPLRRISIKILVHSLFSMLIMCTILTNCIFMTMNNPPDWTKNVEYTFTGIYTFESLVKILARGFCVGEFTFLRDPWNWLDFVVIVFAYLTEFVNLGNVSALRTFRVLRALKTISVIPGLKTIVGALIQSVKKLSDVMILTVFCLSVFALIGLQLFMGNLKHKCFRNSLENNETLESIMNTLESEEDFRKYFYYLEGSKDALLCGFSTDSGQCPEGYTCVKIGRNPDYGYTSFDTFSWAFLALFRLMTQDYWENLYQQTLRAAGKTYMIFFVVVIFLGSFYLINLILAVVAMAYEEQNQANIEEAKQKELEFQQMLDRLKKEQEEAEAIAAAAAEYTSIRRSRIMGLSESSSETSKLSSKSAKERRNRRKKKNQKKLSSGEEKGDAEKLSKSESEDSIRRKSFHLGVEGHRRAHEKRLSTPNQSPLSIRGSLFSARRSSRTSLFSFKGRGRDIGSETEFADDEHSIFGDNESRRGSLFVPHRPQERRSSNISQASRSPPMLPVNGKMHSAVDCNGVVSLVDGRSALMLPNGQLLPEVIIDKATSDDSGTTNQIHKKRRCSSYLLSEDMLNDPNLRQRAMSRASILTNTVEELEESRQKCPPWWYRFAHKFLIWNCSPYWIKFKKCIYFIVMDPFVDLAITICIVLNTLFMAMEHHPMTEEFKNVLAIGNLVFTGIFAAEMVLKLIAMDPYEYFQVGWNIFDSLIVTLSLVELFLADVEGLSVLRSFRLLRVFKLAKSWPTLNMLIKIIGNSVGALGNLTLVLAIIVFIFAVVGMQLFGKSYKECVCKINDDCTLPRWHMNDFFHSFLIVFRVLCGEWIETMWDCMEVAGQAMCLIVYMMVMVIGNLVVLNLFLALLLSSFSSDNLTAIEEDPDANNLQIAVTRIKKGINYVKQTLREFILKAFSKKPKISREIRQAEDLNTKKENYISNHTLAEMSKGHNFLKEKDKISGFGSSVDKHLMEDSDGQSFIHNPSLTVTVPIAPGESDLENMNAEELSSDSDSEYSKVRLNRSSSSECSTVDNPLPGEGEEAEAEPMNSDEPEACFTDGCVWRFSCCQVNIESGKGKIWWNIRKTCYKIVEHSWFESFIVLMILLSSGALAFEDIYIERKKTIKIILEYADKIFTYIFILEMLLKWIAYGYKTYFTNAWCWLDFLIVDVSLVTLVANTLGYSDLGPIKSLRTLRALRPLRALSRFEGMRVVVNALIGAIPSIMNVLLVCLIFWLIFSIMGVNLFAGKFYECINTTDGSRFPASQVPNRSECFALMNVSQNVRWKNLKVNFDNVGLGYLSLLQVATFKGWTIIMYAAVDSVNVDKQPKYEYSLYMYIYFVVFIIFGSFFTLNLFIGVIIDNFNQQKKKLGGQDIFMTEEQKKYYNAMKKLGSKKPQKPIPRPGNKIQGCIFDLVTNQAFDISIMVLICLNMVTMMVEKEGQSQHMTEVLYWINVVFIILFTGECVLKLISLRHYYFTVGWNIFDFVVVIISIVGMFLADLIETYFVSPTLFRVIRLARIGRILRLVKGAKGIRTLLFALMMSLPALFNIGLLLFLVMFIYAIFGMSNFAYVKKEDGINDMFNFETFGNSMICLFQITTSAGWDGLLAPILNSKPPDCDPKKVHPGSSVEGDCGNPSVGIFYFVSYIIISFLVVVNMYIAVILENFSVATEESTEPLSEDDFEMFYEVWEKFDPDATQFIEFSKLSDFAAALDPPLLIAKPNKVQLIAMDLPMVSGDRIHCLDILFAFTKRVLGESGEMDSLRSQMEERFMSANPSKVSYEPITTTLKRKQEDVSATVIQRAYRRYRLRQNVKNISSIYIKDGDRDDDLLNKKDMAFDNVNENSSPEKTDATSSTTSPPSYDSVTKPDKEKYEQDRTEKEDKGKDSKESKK

[5] = target: hNav1.5 (Homo sapiens, UniProt Q14524); assay: cell-based; settings: Table 12
[6] = test system: TTX-sensitive Nav channels in mouse DRG neuron
[7] = target: hNav1.6 (Homo sapiens, UniProt Q9UQD0); assay: cell-based; assay type: cell-based; settings: Table 15
[8] = target: hNav1.4 (Homo sapiens, UniProt P35499); assay: cell-based; assay type: cell-based; settings: Table 12

## C#CC[C@H](N)C(=O)N[C@@H](Cc1ccc(O)cc1)C(=O)N[C@H]1CSSC[C@@H]2NC(=O)[C@@H]3CSSC[C@@H](C(=O)N[C@@H](CCCNC(=N)N)C(=O)N[C@@H](CCCCN)C(=O)N[C@H](C(=O)N[C@H](C(N)=O)[C@@H](C)CC)[C@@H](C)CC)NC(=O)[C@H](Cc4c[nH]c5ccccc45)NC(=O)[C@H](CC(C)C)NC(=O)[C@H](CCCCN)NC(=O)[C@H](CSSC[C@H](NC(=O)[C@H]([C@@H](C)O)NC(=O)[C@H](Cc4c[nH]c5ccccc45)NC(=O)[C@H](CCCC)NC(=O)[C@H](Cc4c[nH]c5ccccc45)NC(=O)[C@H](CCCCN)NC(=O)[C@H](CCC(N)=O)NC1=O)C(=O)N[C@@H](CC(=O)O)C(=O)N[C@@H](CO)C(=O)N[C@@H](CCC(=O)O)C(=O)N[C@@H](CCCNC(=N)N)C(=O)N[C@@H](C)C(=O)N3)NC(=O)[C@H](CCCNC(=N)N)NC(=O)[C@H](CC(C)C)NC(=O)CNC(=O)[C@H](CCC(=O)O)NC2=O [Pra-[Nle6; Glu12]JzTx-V(1-29)]
[1]
  IC50: 6.36 nM
  mNav1.4/mNav1.7: 10
[2]
  IC50: 0.58 nM
  rNav1.7/hNav1.7: 0.49
[3]
  IC50: 0.61 nM
  mNav1.7/hNav1.7: 0.51

## C#CC[C@H](N)C(=O)N[C@@H](CCC(=O)O)C(=O)N[C@H]1CSSC[C@@H]2NC(=O)[C@@H]3CSSC[C@@H](C(=O)N[C@@H](CCCNC(=N)N)C(=O)N[C@@H](CCCCN)C(=O)N[C@@H](CCC(=O)O)C(=O)N[C@H](C(N)=O)[C@@H](C)CC)NC(=O)[C@H](Cc4c[nH]c5ccccc45)NC(=O)[C@H](CC(C)C)NC(=O)[C@H](CCCCN)NC(=O)[C@H](CSSC[C@H](NC(=O)[C@H]([C@@H](C)O)NC(=O)[C@H](Cc4c[nH]c5ccccc45)NC(=O)[C@H](CCCC)NC(=O)[C@H](Cc4c[nH]c5ccccc45)NC(=O)[C@H](CCCCN)NC(=O)[C@H](CCC(N)=O)NC1=O)C(=O)N[C@@H](CC(=O)O)C(=O)N[C@@H](CO)C(=O)N[C@@H](CCCCN)C(=O)N[C@@H](CCCNC(=N)N)C(=O)N[C@@H](C)C(=O)N3)NC(=O)[C@H](CCCNC(=N)N)NC(=O)[C@H](CC(C)C)NC(=O)CNC(=O)[C@H](CCC(=O)O)NC2=O [Pra-[Glu1, 28; Nle6]JzTx-V(1-29)]
[1]
  IC50: 259 nM
  mNav1.4/mNav1.7: 27
[2]
  IC50: 1.38 nM
  rNav1.7/hNav1.7: 1.22
[3]
  IC50: 9.48 nM
  mNav1.7/hNav1.7: 8.41

## C#CC[C@H](N)C(=O)N[C@@H](Cc1ccc(O)cc1)C(=O)N[C@H]1CSSC[C@@H]2NC(=O)[C@@H]3CSSC[C@@H](C(=O)N[C@@H](CCCNC(=N)N)C(=O)N[C@@H](CCCCN)C(=O)N[C@H](C(=O)N[C@H](C(N)=O)[C@@H](C)CC)[C@@H](C)CC)NC(=O)[C@H](Cc4c[nH]c5ccccc45)NC(=O)[C@H](CC(C)C)NC(=O)[C@H](CCCCN)NC(=O)[C@H](CSSC[C@H](NC(=O)[C@H]([C@@H](C)O)NC(=O)[C@H](Cc4c[nH]c5ccccc45)NC(=O)[C@H](CCCC)NC(=O)[C@H](Cc4c[nH]c5ccccc45)NC(=O)[C@H](CCCCN)NC(=O)[C@H](CCC(N)=O)NC1=O)C(=O)N[C@@H](CC(=O)O)C(=O)N[C@@H](CO)C(=O)N[C@@H](CCC(=O)O)C(=O)N[C@@H](CCCNC(=N)N)C(=O)N[C@@H](C)C(=O)N3)NC(=O)[C@H](CCCNC(=N)N)NC(=O)[C@H](CC(C)C)NC(=O)CNC(=O)[C@H](CCCCN)NC2=O [Pra-[Nle6; Glu12; Lys17]JzTx-V(1-29)]
[1]
  IC50: 2.77 nM
  mNav1.4/mNav1.7: 2.2
[2]
  IC50: 0.653 nM
  rNav1.7/hNav1.7: 0.35
[3]
  IC50: 1.27 nM
  mNav1.7/hNav1.7: 0.68

## C#CC[C@H](N)C(=O)N[C@@H](Cc1ccc(O)cc1)C(=O)N[C@H]1CSSC[C@@H]2NC(=O)[C@@H]3CSSC[C@@H](C(=O)N[C@@H](CCCNC(=N)N)C(=O)N[C@@H](CCCCN)C(=O)N[C@H](C(=O)N[C@H](C(N)=O)[C@@H](C)CC)[C@@H](C)CC)NC(=O)[C@H](Cc4c[nH]c5ccccc45)NC(=O)[C@H](CC(C)C)NC(=O)[C@H](CCCCN)NC(=O)[C@H](CSSC[C@H](NC(=O)[C@H]([C@@H](C)O)NC(=O)[C@H](Cc4c[nH]c5ccccc45)NC(=O)[C@H](CCCC)NC(=O)[C@H](Cc4c[nH]c5ccccc45)NC(=O)[C@H](CCCCN)NC(=O)[C@H](CCC(N)=O)NC1=O)C(=O)N[C@@H](CC(=O)O)C(=O)N[C@@H](CO)C(=O)N[C@@H](CCCCN)C(=O)N[C@@H](CCCNC(=N)N)C(=O)N[C@@H](C)C(=O)N3)NC(=O)[C@H](CCCNC(=N)N)NC(=O)[C@H](CC(C)C)NC(=O)CNC(=O)[C@H](CCC(=O)O)NC2=O [SEQ ID NO: 425, Pra-[Nle6]JzTx-V(1-29)]
[1]
  IC50: 0.18 nM
  mNav1.4/mNav1.7: 0.35
[2]
  IC50: 0.522 nM
  rNav1.7/hNav1.7: 0.44
[3]
  IC50: 0.511 nM
  mNav1.7/hNav1.7: 0.43

## CCCC[C@@H]1NC(=O)[C@H](Cc2c[nH]c3ccccc23)NC(=O)[C@H](CCCCN)NC(=O)[C@H](CCC(N)=O)NC(=O)[C@@H](NC(=O)[C@H](Cc2ccc(O)cc2)NC(=O)[C@@H](N)CCC)CSSC[C@@H]2NC(=O)[C@@H]3CSSC[C@@H](C(=O)N[C@@H](CCCNC(=N)N)C(=O)N[C@@H](CCCCN)C(=O)N[C@H](C(=O)N[C@H](C(N)=O)[C@@H](C)CC)[C@@H](C)CC)NC(=O)[C@H](Cc4c[nH]c5ccccc45)NC(=O)[C@H](CC(C)C)NC(=O)[C@H](CCCCN)NC(=O)[C@H](CSSC[C@H](NC(=O)[C@H]([C@@H](C)O)NC(=O)[C@H](Cc4c[nH]c5ccccc45)NC1=O)C(=O)N[C@@H](CC(=O)O)C(=O)N[C@@H](CO)C(=O)N[C@@H](CCCCN)C(=O)N[C@@H](CCCNC(=N)N)C(=O)N[C@@H](C)C(=O)N3)NC(=O)[C@H](CCCNC(=N)N)NC(=O)[C@H](CC(C)C)NC(=O)CNC(=O)[C@H](CCC(=O)O)NC2=O [Nva-[Nle6]JzTx-V(1-29)]
[1]
  IC50: 4.54 nM
[4]; human Nav1.7
  IC50: 0.82 nM

## C#CC[C@H](N)C(=O)N[C@@H](Cc1ccc(O)cc1)C(=O)N[C@H]1CSSC[C@@H]2NC(=O)[C@@H]3CSSC[C@@H](C(=O)N[C@@H](CCCNC(=N)N)C(=O)N[C@@H](CCCCN)C(=O)N[C@@H](CCC(=O)O)C(=O)N[C@H](C(N)=O)[C@@H](C)CC)NC(=O)[C@H](Cc4c[nH]c5ccccc45)NC(=O)[C@H](CC(C)C)NC(=O)[C@H](CCCCN)NC(=O)[C@H](CSSC[C@H](NC(=O)[C@H]([C@@H](C)O)NC(=O)[C@H](Cc4c[nH]c5ccccc45)NC(=O)[C@H](CCCC)NC(=O)[C@H](Cc4c[nH]c5ccccc45)NC(=O)[C@H](CCCCN)NC(=O)[C@H](CCC(N)=O)NC1=O)C(=O)N[C@@H](CC(=O)O)C(=O)N[C@@H](CO)C(=O)N[C@@H](CCC(=O)O)C(=O)N[C@@H](CCCNC(=N)N)C(=O)N[C@@H](C)C(=O)N3)NC(=O)[C@H](CCCNC(=N)N)NC(=O)[C@H](CC(C)C)NC(=O)CNC(=O)[C@H](CCC(=O)O)NC2=O [compound 715]
[5]; PatchXpress, tonic block, read-out: PX hNav1.5 Tonic IC50
  IC50: > 10000 nM
[5]; ratio of PX tonic IC50 values
  Nav1.5/Nav1.7: >5794
[6]
  IC50: 144 nM
[6]; 1000 nM, C57 Black 6 mouse DRG neuron
  block of TTX-sensitive Nav current: approximately 90%
[4]; Table 12
  IC50: 1.73 nM
[7]; ratio of PX tonic IC50 values
  Nav1.6/Nav1.7: 508
[7]; read-out: PX hNav1.6 Tonic IC50
  IC50: 877 nM
[8]; PatchXpress, tonic block, read-out: PX hNav1.4 Tonic IC50
  IC50: 811 nM
[8]; ratio of PX tonic IC50 values
  Nav1.4/Nav1.7: 470

## C#CC[C@H](N)C(=O)N[C@@H](Cc1ccc(O)cc1)C(=O)N[C@H]1CSSC[C@@H]2NC(=O)[C@@H]3CSSC[C@@H](C(=O)N[C@@H](CCCNC(=N)N)C(=O)N[C@@H](CCCCN)C(=O)N[C@H](C(=O)N[C@@H](Cc4c[nH]c5ccccc45)C(N)=O)[C@@H](C)CC)NC(=O)[C@H](Cc4c[nH]c5ccccc45)NC(=O)[C@H](CC(C)C)NC(=O)[C@H](CCCCN)NC(=O)[C@H](CSSC[C@H](NC(=O)[C@H]([C@@H](C)O)NC(=O)[C@H](Cc4c[nH]c5ccccc45)NC(=O)[C@H](CCCC)NC(=O)[C@H](Cc4c[nH]c5ccccc45)NC(=O)[C@H](CCCCN)NC(=O)[C@H](CCC(N)=O)NC1=O)C(=O)N[C@@H](CC(=O)O)C(=O)N[C@@H](CO)C(=O)N[C@@H](CCCCN)C(=O)N[C@@H](CCCNC(=N)N)C(=O)N[C@@H](C)C(=O)N3)NC(=O)[C@H](CCCNC(=N)N)NC(=O)[C@H](CC(C)C)NC(=O)CNC(=O)[C@H](CCC(=O)O)NC2=O [Pra-[Nle6; Trp29]JzTx-V(1-29)]
[1]
  IC50: 9.67 nM
  mNav1.4/mNav1.7: 0.91
[3]
  IC50: 10.7 nM
  mNav1.7/hNav1.7: 2.23

## CCCC[C@@H]1NC(=O)[C@H](Cc2c[nH]c3ccccc23)NC(=O)[C@H](CCCCN)NC(=O)[C@H](CCC(N)=O)NC(=O)[C@@H](NC(=O)[C@H](Cc2ccc(O)cc2)NC(=O)[C@@H](N)CC(C)C)CSSC[C@@H]2NC(=O)[C@@H]3CSSC[C@@H](C(=O)N[C@@H](CCCNC(=N)N)C(=O)N[C@@H](CCCCN)C(=O)N[C@H](C(=O)N[C@H](C(N)=O)[C@@H](C)CC)[C@@H](C)CC)NC(=O)[C@H](Cc4c[nH]c5ccccc45)NC(=O)[C@H](CC(C)C)NC(=O)[C@H](CCCCN)NC(=O)[C@H](CSSC[C@H](NC(=O)[C@H]([C@@H](C)O)NC(=O)[C@H](Cc4c[nH]c5ccccc45)NC1=O)C(=O)N[C@@H](CC(=O)O)C(=O)N[C@@H](CO)C(=O)N[C@@H](CCCCN)C(=O)N[C@@H](CCCNC(=N)N)C(=O)N[C@@H](C)C(=O)N3)NC(=O)[C@H](CCCNC(=N)N)NC(=O)[C@H](CC(C)C)NC(=O)CNC(=O)[C@H](CCC(=O)O)NC2=O [Leu-[Nle6]JzTx-V(1-29)]
[1]
  IC50: 1.8 nM
  mNav1.4/mNav1.7: 1.4
[3]
  IC50: 1.33 nM
  mNav1.7/hNav1.7: 10.22
[4]; human Nav1.7
  IC50: 0.13 nM
